Laboratory results published in ChEMBL document CHEMBL5316284, “Structural Determinants of Indole-2-carboxamides: Identification of Lead Acetamides with Pan Antimycobacterial Activity” (J Med Chem, 2023).
Converted amounts (≈) assume the structure as drawn. The source made the active and inactive calls. The calls are words filed in the database; no cut-off is given here.

What was measured:
[1] = system: Mycobacterium tuberculosis; experiment: Antimycobacterial activity against Mycobacterium tuberculosis H37Rv mc2 6206 assessed as inhibition of bacterial growth measured after 7 days by visual analysis; type: functional; details: H37Rv mc2 6206, 168 h, time 7 day
[2] = system: Mycolicibacterium fortuitum; experiment: Antimycobacterial activity against Mycobacterium fortuitum ATCC 6841 assessed as inhibition of bacterial growth by visual analysis; type: functional
[3] = Antimycobacterial activity against Mycobacterium avium subsp. avium 2585R assessed as inhibition of bacterial growth by visual analysis; type: functional
[4] = system: Mycobacterium intracellulare; experiment: Antimycobacterial activity against Mycobacterium intracellulare 1956 assessed as inhibition of bacterial growth by visual analysis; type: functional
[5] = system: Mycobacteroides chelonae; experiment: Antimycobacterial activity against Mycobacteroides chelonae ATCC 35752 assessed as inhibition of bacterial growth by visual analysis; type: functional
[6] = system: Mycobacterium intracellulare subsp. chimaera; experiment: Antimycobacterial activity against Mycobacterium intracellulare subsp. chimaera 1501948 assessed as inhibition of bacterial growth by visual analysis; type: functional
[7] = system: Mycobacterium kansasii; experiment: Antimycobacterial activity against Mycobacterium kansasii ATCC 1279 assessed as inhibition of bacterial growth by visual analysis; type: functional
[8] = Kinetic solubility of compound at pH 7.4 incubated for 6 hrs by LC-MS/MS analysis; type: physicochemical; details: buffer, read-out: Kinetic_solubility
[9] = Permeability of the compound by PAMPA method; type: ADME
[10] = Plasma protein binding in human at 10 ug/ml incubated for 4 hrs under shaking condition by LC/MS/MS analysis; type: ADME, cell-free; details: at 10 µg/mL, read-out: PPB (converted)
[11] = Metabolic stability in human liver S9 fraction assessed as parent compound remaining at 5 ug/ml after 90 mins in presence of NADPH by LC/MS analysis; type: ADME, subcellular; details: s9, 1.5 h, dose 5 µg/ml
[12] = Metabolic stability in mouse liver S9 fraction assessed as parent compound remaining at 5 ug/ml after 90 mins in presence of NADPH by LC/MS analysis; type: ADME, subcellular; details: s9, 1.5 h, dose 5 µg/ml
[13] = Cytotoxicity against human WI26VA4 cells assessed as inhibition of cell growth measured after 72 hrs by MTT assay; type: toxicity, cell-based
[14] = Selectivity index, ratio of IC50 for Cytotoxicity against human WI26VA4 cells to MIC for antimycobacterial activity against Mycobacterium abscessus […]; type: toxicity, cell-based; details: read-out: Selectivity Index
[15] = Selectivity index, ratio of IC50 for Cytotoxicity against human WI26VA4 cells to MIC for antimycobacterial activity against Mycobacterium tuberculosis H37Rv mc2 6206; type: toxicity, cell-based; details: read-out: Selectivity Index
[16] = Cytotoxicity against mouse HEI-OC1 cells assessed as inhibition of cell growth measured after 72 hrs by MTT assay; type: toxicity, cell-based
[17] = system: Mycobacteroides abscessus; experiment: Antimycobacterial activity against Mycobacterium abscessus […] assessed as inhibition of mycolic acid biosynthesis at 1 to 10 times of MIC incubated for 3 hrs in presence of [1,2-14C]-acetate by TLC analysis; type: functional, organism-based
[18] = system: Mycobacteroides abscessus; experiment: Antimycobacterial activity against Mycobacterium abscessus […] assessed as decrease in mycolic acid transfer onto cell wall arabinogalactan incubated for 3 hrs in presence of [1,2-14C]-acetate by TLC analysis; type: functional, organism-based
[19] = system: Mycobacteroides abscessus; experiment: Antimycobacterial activity against Mycobacterium abscessus […] assessed as decrease in mycolic acid transfer onto cell wall trehalose dimycolate incubated for 3 hrs in presence of [1,2-14C]-acetate by TLC analysis; type: functional, organism-based
[20] = system: Mycobacteroides abscessus; experiment: Antimycobacterial activity against Mycobacterium abscessus ATCC 19977 harbouring wild type mmpL3 gene assessed as inhibition of bacterial growth by visual analysis; type: functional
[21] = system: Mycobacteroides abscessus; experiment: Antimycobacterial activity against Mycobacterium Mycobacterium abscessus ATCC 19977 harbouring mmpL3 I306S mutant gene assessed as inhibition of bacterial growth by visual analysis; type: functional
[22] = system: Mycobacteroides abscessus; experiment: Antimycobacterial activity against Mycobacterium abscessus ATCC 19977 harbouring mmpL3 A309P mutant gene assessed as inhibition of bacterial growth by visual analysis; type: functional
[23] = system: Mycobacteroides abscessus; experiment: Antimycobacterial activity against Mycobacterium abscessus ATCC 19977 harbouring mmpL3 L551S mutant gene assessed as inhibition of bacterial growth by visual analysis; type: functional
[24] = system: Mycobacterium tuberculosis; experiment: Displacement of North 114 from Mycobacterium tuberculosis wild type MmpL3 expressed in Mycobacterium smegmatis upto 8 uM incubated for 15 mins by flow cytometry based competition binding assay
[25] = Binding affinity to Mycobacterium tuberculosis MmpL3 assessed as equilibrium constant by SPR analysis
[26] = Binding affinity to Mycobacterium tuberculosis MmpL3 assessed as dissociation constant by SPR analysis
[27] = Cytotoxicity against mouse HEI-OC1 cells assessed as viable cells upto 100 uM measured after 72 hrs by MTT assay; type: toxicity, cell-based; details: hei-oc1, 72 h

## C[C@@H]1[C@H]2C[C@@H](C[C@H]1NC(=O)CNc1cccc(Cl)c1)C2(C)C
[1]
  MIC: 0.25 µg/mL (≈ 0.779 µM)
[2]
  MIC: 2 µg/mL (≈ 6.23 µM)
[3]
  MIC: 8 µg/mL (≈ 24.9 µM)
[4]
  MIC: 8 µg/mL (≈ 24.9 µM)
[5]
  MIC: 4 µg/mL (≈ 12.5 µM)
[6]
  MIC: 16 µg/mL (≈ 49.9 µM)
[7]
  MIC: 8 µg/mL (≈ 24.9 µM)
[8]
  solubility kinetic at 6 h: 16.3 µg/mL (≈ 50.8 µM)
[9]
  permeability: 1.33 10^-6 cm/s
[10]
  fraction unbound at 4 h, 10 ug/ml: 0.059
[11]
  t1/2: 5.3 h
[12]
  t1/2: 4.6 h
[13]
  IC50: > 20 µg/mL
[14]
  selectivity ratio: > 40
[15]
  selectivity ratio: > 80
[16]
  IC50 at 72 h: 14.1 µM
[17]
  Activity: inactive
[18]
  Activity: Active
[19]
  Activity: Active
[20]
  MIC: 0.5 µg/mL (≈ 1.56 µM)
[21]
  MIC: 1 µg/mL (≈ 3.12 µM)
[22]
  MIC: > 64 µg/mL
[23]
  MIC: 0.5 µg/mL (≈ 1.56 µM)
[24]
  Activity: Active
[25]
  Kd: 800 µM
[26]
  Kd: 1.22 s⁻¹

## O=C(CNc1cccc(OC(F)(F)F)c1)NC12CC3CC(CC(C3)C1)C2
[1]
  MIC: 0.25 µg/mL (≈ 0.679 µM)
[2]
  MIC: 2 µg/mL (≈ 5.43 µM)
[3]
  MIC: 8 µg/mL (≈ 21.7 µM)
[4]
  MIC: 8 µg/mL (≈ 21.7 µM)
[5]
  MIC: 4 µg/mL (≈ 10.9 µM)
[6]
  MIC: 16 µg/mL (≈ 43.4 µM)
[7]
  MIC: 8 µg/mL (≈ 21.7 µM)
[8]
  solubility kinetic at 6 h: 20.4 µg/mL (≈ 55.4 µM)
[9]
  permeability: 3.61 10^-6 cm/s
[10]
  fraction unbound at 4 h, 10 ug/ml: 0.051
[11]
  t1/2: 0.7 h
[12]
  t1/2: 0.4 h
[13]
  IC50: > 20 µg/mL
[14]
  selectivity ratio: > 40
[15]
  selectivity ratio: > 80
[27]
  Activity: 70.8%
[17]
  Activity: inactive
[18]
  Activity: Active
[19]
  Activity: Active
[20]
  MIC: 0.5 µg/mL (≈ 1.36 µM)
[21]
  MIC: 1 µg/mL (≈ 2.71 µM)
[22]
  MIC: > 64 µg/mL
[23]
  MIC: 0.5 µg/mL (≈ 1.36 µM)
[24]
  Activity: Active
[25]
  Kd: 780 µM
[26]
  Kd: 1.23 s⁻¹
